{"source": "ChEMBL document CHEMBL1151538", "about": "“Rearrangement of unsymmetrical azetidinone disulfides to 2-(heterocyclylthiomethyl)penams, a synthetic approach to new -lactamase inhibitors” (Bioorg Med Chem Lett, 1993)", "key": {"[1]": {"molecular_target": "T1, Beta-lactamase BRO-1 (Moraxella catarrhalis, UniProt Q59514)", "T1 sequence (Q59514 whole entry)": "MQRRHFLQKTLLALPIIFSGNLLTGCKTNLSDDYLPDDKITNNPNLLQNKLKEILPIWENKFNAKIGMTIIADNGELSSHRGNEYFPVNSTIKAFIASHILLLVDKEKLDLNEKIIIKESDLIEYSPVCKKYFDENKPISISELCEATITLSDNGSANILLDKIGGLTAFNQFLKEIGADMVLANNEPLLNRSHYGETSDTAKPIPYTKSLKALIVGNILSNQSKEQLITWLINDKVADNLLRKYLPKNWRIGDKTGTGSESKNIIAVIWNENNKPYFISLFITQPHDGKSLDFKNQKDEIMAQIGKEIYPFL", "test": "Inhibitory activity against Branhamella catarrhalis 89001 Class-III BRO-1 type beta-lactamase enzyme", "parameters": "species or system b.catarr"}, "[2]": {"molecular_target": "T2, Beta-lactamase SHV-1 (Escherichia coli, UniProt P0AD63)", "T2 sequence (P0AD63 whole entry)": "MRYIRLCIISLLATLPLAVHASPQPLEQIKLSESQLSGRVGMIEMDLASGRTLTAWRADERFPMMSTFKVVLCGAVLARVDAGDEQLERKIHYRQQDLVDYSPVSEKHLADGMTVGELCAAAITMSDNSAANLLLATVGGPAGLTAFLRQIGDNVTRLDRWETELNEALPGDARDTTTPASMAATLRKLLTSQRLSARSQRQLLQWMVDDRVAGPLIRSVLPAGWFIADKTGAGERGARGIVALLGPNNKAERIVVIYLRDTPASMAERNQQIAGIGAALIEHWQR", "test": "Inhibitory activity against Escherichia coli HA208 Class-III SHV-1 type beta-lactamase enzyme"}, "[3]": {"molecular_target": "Beta-lactamase OXA-1 (Escherichia coli, UniProt P13661)", "sequence (P13661 whole entry)": "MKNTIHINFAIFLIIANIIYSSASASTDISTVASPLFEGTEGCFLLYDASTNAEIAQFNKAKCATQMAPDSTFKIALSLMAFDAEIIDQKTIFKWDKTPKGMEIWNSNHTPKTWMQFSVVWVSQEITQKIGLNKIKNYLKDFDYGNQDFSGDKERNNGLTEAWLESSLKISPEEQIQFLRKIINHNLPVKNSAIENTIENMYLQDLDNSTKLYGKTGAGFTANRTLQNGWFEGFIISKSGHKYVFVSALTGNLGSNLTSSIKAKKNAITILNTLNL", "test": "Inhibitory activity against Escherichia coli HA209 Class-V OXA-1 type beta-lactamase enzyme"}, "[4]": {"molecular_target": "Beta-lactamase TEM (Escherichia coli, UniProt P62593)", "sequence (P62593 whole entry)": "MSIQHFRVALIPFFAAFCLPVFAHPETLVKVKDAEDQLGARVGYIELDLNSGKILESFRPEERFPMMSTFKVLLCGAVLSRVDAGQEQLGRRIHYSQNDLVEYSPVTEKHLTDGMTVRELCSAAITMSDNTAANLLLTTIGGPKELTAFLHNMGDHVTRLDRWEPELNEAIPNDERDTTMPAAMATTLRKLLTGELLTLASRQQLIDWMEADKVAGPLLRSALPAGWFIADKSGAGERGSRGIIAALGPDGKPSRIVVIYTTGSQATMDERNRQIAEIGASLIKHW", "test": "Inhibitory activity against Escherichia coli HA58R Class-III TEM-1 type beta-lactamase enzyme"}, "[5]": {"molecular_target": "Beta-lactamase (Enterobacter cloacae, UniProt P05364)", "sequence (P05364 whole entry)": "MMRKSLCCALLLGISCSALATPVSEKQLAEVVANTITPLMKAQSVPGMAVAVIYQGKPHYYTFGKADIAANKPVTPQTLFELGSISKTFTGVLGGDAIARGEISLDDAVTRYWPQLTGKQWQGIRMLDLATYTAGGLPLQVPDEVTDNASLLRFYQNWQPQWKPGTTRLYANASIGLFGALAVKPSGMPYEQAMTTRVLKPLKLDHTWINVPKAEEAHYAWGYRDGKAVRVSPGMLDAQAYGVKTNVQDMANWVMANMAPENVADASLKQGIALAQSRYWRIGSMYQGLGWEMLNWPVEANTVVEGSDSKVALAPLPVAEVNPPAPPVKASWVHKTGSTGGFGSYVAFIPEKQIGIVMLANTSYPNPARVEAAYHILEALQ", "test": "Inhibitory activity against Enterobacter cloacae HC8 Class-I beta-lactamase enzyme type P99"}, "[6]": {"molecular_target": "T3, Beta-lactamase (Klebsiella oxytoca, UniProt Q8RT60)", "T3 sequence (Q8RT60 whole entry)": "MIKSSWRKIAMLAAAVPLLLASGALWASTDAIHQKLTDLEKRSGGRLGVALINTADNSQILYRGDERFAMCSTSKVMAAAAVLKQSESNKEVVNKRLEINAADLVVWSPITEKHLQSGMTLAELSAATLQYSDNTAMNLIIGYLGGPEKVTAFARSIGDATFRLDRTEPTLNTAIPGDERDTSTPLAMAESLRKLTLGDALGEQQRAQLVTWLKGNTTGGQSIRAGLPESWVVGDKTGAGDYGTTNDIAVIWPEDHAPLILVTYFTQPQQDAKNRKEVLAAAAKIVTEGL", "test": "Inhibitory activity against Klebsiella oxytoca HC7 Class-IV K1 type beta-lactamase enzyme"}, "[7]": {"molecular_target": "Beta-lactamase (Staphylococcus aureus, UniProt P00807)", "sequence (P00807 whole entry)": "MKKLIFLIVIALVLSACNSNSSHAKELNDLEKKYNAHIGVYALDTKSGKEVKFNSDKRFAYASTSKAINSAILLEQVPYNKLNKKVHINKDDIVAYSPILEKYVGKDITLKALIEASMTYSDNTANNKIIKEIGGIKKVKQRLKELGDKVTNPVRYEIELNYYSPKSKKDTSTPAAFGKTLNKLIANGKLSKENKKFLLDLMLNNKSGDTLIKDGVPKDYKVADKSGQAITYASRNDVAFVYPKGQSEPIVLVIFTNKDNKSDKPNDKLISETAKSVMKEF", "test": "Inhibitory activity against Staphylococcus aureus CJ8 beta-lactamase enzyme"}, "[8]": {"molecular_target": "Beta-lactamase (Citrobacter freundii, UniProt P05193)", "sequence (P05193 whole entry)": "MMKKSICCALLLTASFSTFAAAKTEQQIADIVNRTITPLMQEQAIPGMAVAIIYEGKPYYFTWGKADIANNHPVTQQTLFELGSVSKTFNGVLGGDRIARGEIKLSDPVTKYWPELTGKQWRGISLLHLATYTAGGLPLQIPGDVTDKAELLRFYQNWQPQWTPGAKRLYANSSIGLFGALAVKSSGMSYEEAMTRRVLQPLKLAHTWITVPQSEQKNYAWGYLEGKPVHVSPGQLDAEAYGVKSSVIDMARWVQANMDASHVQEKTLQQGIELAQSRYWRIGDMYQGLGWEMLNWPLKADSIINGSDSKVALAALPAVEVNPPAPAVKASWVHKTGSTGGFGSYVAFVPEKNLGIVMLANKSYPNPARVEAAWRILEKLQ", "test": "Inhibitory activity against Citrobacter freundii 87470 Class-I beta-lactamase enzyme"}}, "data": [{"smiles": "Cn1ccnc1SC[C@@]1(C)[C@H](C(=O)O)N2C(=O)C[C@H]2S1(=O)=O", "values": [{"measurement": "IC50", "setting": "[1]", "result": 2.9, "unit": "nM"}, {"measurement": "IC50", "setting": "[2]", "result": 926, "unit": "nM"}, {"measurement": "IC50", "setting": "[3]", "result": 463, "unit": "nM"}]}, {"smiles": "Cn1nnnc1SC[C@@]1(C)[C@H](C(=O)O)N2C(=O)C[C@H]2S1(=O)=O", "values": [{"measurement": "IC50", "setting": "[1]", "result": 8.64, "unit": "nM"}, {"measurement": "IC50", "setting": "[4]", "result": 17.3, "unit": "nM"}, {"measurement": "IC50", "setting": "[2]", "result": 72, "unit": "nM"}, {"measurement": "IC50", "setting": "[3]", "result": 92.1, "unit": "nM"}]}, {"smiles": "C[C@@]1(CSc2nc3ccccc3s2)S[C@@H]2[C@H](Br)C(=O)N2[C@H]1C(=O)O", "values": [{"measurement": "IC50", "setting": "[1]", "result": 56.1, "unit": "nM"}, {"measurement": "IC50", "setting": "[4]", "result": 35.9, "unit": "nM"}, {"measurement": "IC50", "setting": "[2]", "result": 141, "unit": "nM"}, {"measurement": "IC50", "setting": "[3]", "result": 1410, "unit": "nM"}]}, {"smiles": "C[C@]1(CSc2nc3ccccc3o2)[C@H](C(=O)O)N2C(=O)C[C@H]2S1(=O)=O", "values": [{"measurement": "IC50", "setting": "[4]", "result": 10.5, "unit": "nM"}, {"measurement": "IC50", "setting": "[3]", "result": 83.7, "unit": "nM"}]}, {"smiles": "Cn1nnnc1SC[C@]1(C)S[C@@H]2[C@H](Br)C(=O)N2[C@H]1C(=O)O", "values": [{"measurement": "IC50", "setting": "[1]", "result": 50.7, "unit": "nM"}, {"measurement": "IC50", "setting": "[4]", "result": 101, "unit": "nM"}, {"measurement": "IC50", "setting": "[2]", "result": 1010, "unit": "nM"}, {"measurement": "IC50", "setting": "[3]", "result": 8120, "unit": "nM"}]}, {"smiles": "Cn1cnnc1SC[C@@]1(C)[C@H](C(=O)O)N2C(=O)C[C@H]2S1(=O)=O", "values": [{"measurement": "IC50", "setting": "[1]", "result": 2.89, "unit": "nM"}, {"measurement": "IC50", "setting": "[4]", "result": 72.2, "unit": "nM"}, {"measurement": "IC50", "setting": "[2]", "result": 577, "unit": "nM"}]}, {"smiles": "C[C@@]1(CSc2nc3ccccc3o2)S[C@@H]2[C@H](Br)C(=O)N2[C@H]1C(=O)O", "values": [{"measurement": "IC50", "setting": "[4]", "result": 30.3, "unit": "nM"}, {"measurement": "IC50", "setting": "[2]", "result": 147, "unit": "nM"}, {"measurement": "IC50", "setting": "[5]", "result": 18400, "unit": "nM"}, {"measurement": "IC50", "setting": "[6]", "result": 1160, "unit": "nM"}, {"measurement": "IC50", "setting": "[7]", "result": 116, "unit": "nM"}, {"measurement": "IC50", "setting": "[8]", "result": 14700, "unit": "nM"}]}, {"smiles": "C[C@]1(CSC2=NCCS2)[C@H](C(=O)O)N2C(=O)C[C@H]2S1(=O)=O", "values": [{"measurement": "IC50", "setting": "[1]", "result": 2.85, "unit": "nM"}, {"measurement": "IC50", "setting": "[4]", "result": 22.8, "unit": "nM"}, {"measurement": "IC50", "setting": "[2]", "result": 371, "unit": "nM"}, {"measurement": "IC50", "setting": "[3]", "result": 114, "unit": "nM"}]}, {"smiles": "C[C@]1(CSc2nc3ccccc3[nH]2)[C@H](C(=O)O)N2C(=O)C[C@H]2S1(=O)=O", "values": [{"measurement": "IC50", "setting": "[4]", "result": 65.5, "unit": "nM"}, {"measurement": "IC50", "setting": "[2]", "result": 655, "unit": "nM"}]}, {"smiles": "Cn1ccnc1SC[C@]1(C)S[C@@H]2[C@H](Br)C(=O)N2[C@H]1C(=O)O", "values": [{"measurement": "IC50", "setting": "[1]", "result": 63.7, "unit": "nM"}, {"measurement": "IC50", "setting": "[4]", "result": 15.3, "unit": "nM"}, {"measurement": "IC50", "setting": "[2]", "result": 51, "unit": "nM"}, {"measurement": "IC50", "setting": "[3]", "result": 10200, "unit": "nM"}]}, {"smiles": "O=C(O)[C@H]1/C(=C/CO)O[C@@H]2CC(=O)N21", "note": "[CLAVULANIC ACID]", "values": [{"measurement": "IC50", "setting": "[1]", "result": 30.1, "unit": "nM"}]}, {"smiles": "CC1(C)[C@H](C(=O)O)N2C(=O)C[C@H]2S1(=O)=O", "note": "[SULBACTAM]", "values": [{"measurement": "IC50", "setting": "[2]", "result": 1710, "unit": "nM"}, {"measurement": "IC50", "setting": "[3]", "result": 1370, "unit": "nM"}]}, {"smiles": "C[C@]1(Cn2ccnn2)[C@H](C(=O)O)N2C(=O)C[C@H]2S1(=O)=O", "note": "[TAZOBACTAM]", "values": [{"measurement": "IC50", "setting": "[1]", "result": 33.3, "unit": "nM"}, {"measurement": "IC50", "setting": "[2]", "result": 133, "unit": "nM"}]}]}
